Source: US6946465B2, “Immunosuppressive effects of pteridine derivatives” (4 AZA Bioscience NV, priority 1999, dated 2005)

Tests used:
Type in all cases: cell-based, human
[1] = tested on: peripheral blood mononuclear cells (PBMC) with allogeneic PBMC or RPMI1788 stimulator cells; experiment: Mixed lymphocyte reaction (MLR) test, [3H]-thymidine incorporation; conditions: Table 1; 5 days incubation + 16 h thymidine
From the text: (§1) Various models may be used for testing an immunosuppressive effect. In vivo, for example, different transplantation models are available. They are strongly influenced by different immunogenicities, depending on the donor and recipient species used and depending on the nature of the transplanted organ. The survival time of transplanted organs can thus be used to measure the suppression of the immune response. In vitro, the most used models are lymphocyte activation tests. Usually activation is measured via lymphocyte proliferation. Inhibition of proliferation thus always means immunosuppression under the experimental conditions applied. There exist different stimuli for lymphocyte activation: • a) co-culture of lymphocytes of […] (mixed lymphocyte reaction, hereinafter referred as MLR) in a so-called mixed lymphocyte culture test: lymphocytes expressing different minor and major antigens of the HLA-DR type (=alloantigens) activate each other non-specifically. • b) a CD3 assay here there is an activation of the T-lymphocytes via an exogenously added antibody (OKT3).
(§2) All reagents were dissolved in 0.5 ml dimethylsulfoxide (hereinafter referred as DMSO) and further diluted in culture medium before use for the following in vitro experiments. The commercially available culture medium consisted of RPMI-1640+10% foetal calf serum (FCS).
Peripheral blood mononuclear cells (hereinafter referred as PBMC) were isolated from heparinized peripheral blood by density gradient centrifugation over Lymphoprep (Nycomed, Maorstua, Norway). Allogeneic PBMC or Eppstein-Barr Virus-transformed human B cells [commercially available under the trade name RPM11788 (ATCC name CCL156)] which strongly express B7-1 and B7-2 antigens were used as stimulator cells after irradiation with 30 Gy. MLR was performed in triplicate wells. After 5 days incubation at 37° C., 1 μCi [^3 H]-thymidine was added to each cup. After a further 16 hours incubation, cells were harvested and counted in a β-counter. Inhibition of proliferation by a compound (drug) described in some of the previous examples was counted using the formula: [formula] wherein cpm is the thymidine count per minute. Assays for CD3 and CD 28

[2] = tested on: highly purified T cells stimulated by immobilized anti-CD3 mAb; experiment: CD3 assay: T-cell proliferation stimulated by anti-CD3 mAb + PMA (BrdU); conditions: Table 1; anti-CD3 mAb + PMA 0.5 ng/ml, 48 h; read-out: CD 3 IC50
From the text: as §1, §2
(§3) T cells were purified by removing non-T cells. Briefly, monocytes were removed by cold agglutination. The resulting lymphoid cells were further purified by a cell enrichment immunocolumn [Cellect Human T commercially available from Biotex, Edmonton, Alberta, Canada)] by a process of negative selection.
(§4) Highly purified T cells (10^6/ml) were stimulated by immobilized anti-CD3 or anti-CD28 monoclonal antibodies (hereinafter referred as mAb) in the presence of PMA. Anti-CD3 mAb (available from CLB, Amsterdam, Netherlands) were fixed on the 96-microwell plates by incubating the wells with 50 μl of mAb solution (1/800 dilution in culture medium). For anti-CD28 mAb (available from CLB, Amsterdam, Netherlands) 50 μl (1/650 dilution in culture medium) was added directly to the wells. Further, a 20 μl phorbol myristate acetate (hereinafter referred as PMA (commercially available from Sigma, St. Louis, Mo., USA) solution (final concentration: 0.5 ng/ml) was added. Subsequently, 20 μl of a compound described in some of the previous examples were added by serial dilution in triplicate wells. Finally 100 μl of the T-cell suspension (10^6/ml) was added. After 48-hour incubation at 37° C. in 5% CO2 20 μl of a bromo-deuridine (hereinafter referred as BrdU) 100 μM solution (commercially available as Cell Proliferation Elisa from Boehringer-Mannheim Belgium) was added to each well. After a further overnight incubation, T-cell proliferation was measured using a colorimetric immunoassay for qualification of cell proliferation based on the incorporation of BrdU during DNA synthesis. Optical density (hereinafter referred as OD) was measured by a Behring EL311 plate reader at 450 nm (reference wavelength: 690 nm). Inhibition of proliferation by a compound (drug) described in some of the previous examples was counted using the formula: [formula]

[3] = tested on: highly purified T cells stimulated by anti-CD28 mAb; experiment: CD28 assay: T-cell proliferation stimulated by anti-CD28 mAb + PMA (BrdU); conditions: Table 1; anti-CD28 mAb + PMA 0.5 ng/ml, 48 h
From the text: as §1, §2, §3, §4

Cc1nc2c(=O)n(C)c(=O)n(C)c2nc1C=Cc1ccccc1 [Example 76, 7-(2-phenylethenyl)-1,3,6-trimethyl-lumazine]
IC50 [1]: 120 µM
IC50 [2]: 68 µM
IC50 [3]: 116 µM

CC(=O)Nc1nc2c(nc1C#N)c(=O)n(C)c(=O)n2C [Example 54, 6-cyano-7-acetenylamino-1,3-dimethyl-lumazine]
IC50 [1]: 140 µM
IC50 [2]: 104 µM
IC50 [3]: 80 µM

COC(=O)C(Br)C(Br)c1cnc2c(=O)n(C)c(=O)n(C)c2n1 (stereo not drawn) [Example 25, 7-[1,2-dibromo-2-(methoxycarbonyl)ethyl)-1,3-dimethyllumazine]
IC50 [1]: 1.9 µM

COc1nc2c(nc1C=Cc1ccccc1)c(=O)n(C)c(=O)n2C [Example 40, 7-methoxy-1,3-dimethyl-6-styryllumazine]
IC50 [1]: 20 µM
IC50 [2]: > 200 µM
IC50 [3]: > 200 µM

Cn1c(=O)c2nc(C(Br)C(Br)c3ccccc3)cnc2n(C)c1=O (stereo not drawn) [Example 8, 6-(1,2-dibromo-2-phenylethyl)-1,3-dimethyllumazine]
IC50 [1]: 15 µM
IC50 [3]: 1.55 µM

Cn1c(=O)c2nc(/C=C/c3ccncc3)cnc2n(C)c1=O [Example 7, 1,3-dimethyl-6-[(E)-2-(pyrid-4-yl)vinyl]lumazine]
IC50 [1]: 20 µM
IC50 [2]: 150 µM
IC50 [3]: 150 µM

CCSC(C[N+](=O)[O-])c1cnc2c(n1)c(=O)n(C)c(=O)n2C (stereo not drawn) [Example 19, 6-[(1-ethylthio-2-nitro)ethyl]-1,3-dimethyl-lumazine]
IC50 [1]: 4.5 µM
IC50 [2]: 0.35 µM
IC50 [3]: 0.09 µM

Cn1c(=O)c2ncc(/C=C/C=Cc3ccccc3)nc2n(C)c1=O [Example 23, 1,3-dimethyl-7-[(E)-4-(phenyl)butadienyl]-lumazine]
IC50 [1]: 30 µM
IC50 [2]: 110 µM
IC50 [3]: 80 µM

Cn1c(=O)c2nc(C=Cc3ccc(C(F)(F)F)cc3)cnc2n(C)c1=O [Example 77, 6-[2-(p-trifluoromethylphenyl)ethenyl]-1,3-dimethyllumazine]
IC50 [1]: 17 µM
IC50 [2]: > 200 µM
IC50 [3]: 140 µM

Cn1c(=O)c2nc(C=O)c(N3CCSCC3)nc2n(C)c1=O [Example 69, 6-formyl-7-thiomorpholino-1,3-dimethyl-lumazine]
IC50 [1]: 116 µM
IC50 [2]: 80 µM
IC50 [3]: 116 µM

Cn1c(=O)c2nc(Cl)c(N3CCCCC3)nc2n(C)c1=O [Example 75, 6-chloro-7-piperidyl-1,3-diimethyl-lumazine]
IC50 [1]: 160 µM
IC50 [2]: 80 µM
IC50 [3]: 80 µM

CC(C)CNc1nc2c(nc1C#N)c(=O)n(C)c(=O)n2C [Example 52, 6-cyano-7-isobutylamino-1,3-dimethyl-lumazine]
IC50 [1]: 116 µM
IC50 [2]: 116 µM
IC50 [3]: 80 µM

CCOC(=O)c1nc2c(=O)n(C)c(=O)n(C)c2nc1SCC [Example 65, 6-ethylcarboxylate-7-mercaptoethyl-1,3-dimethyl-lumazine]
IC50 [1]: 140 µM
IC50 [2]: 116 µM
IC50 [3]: 116 µM

Cn1c(=O)c2ncc(/C=C/c3ccccc3)nc2n(C)c1=O [Example 26, 1,3-dimethyl-7-(E)-styryllumazine]
IC50 [1]: 50 µM
IC50 [2]: 115 µM
IC50 [3]: 115 µM

Cn1c(=O)c2ncc(Cl)nc2n(C)c1=O [Example 31, 7-chloro-1,3-dimethyllumazine]
IC50 [1]: 12 µM
IC50 [3]: 0.1 µM

Cn1c(=O)c2nc(C=Cc3ccccc3)cnc2n(C)c1=O [Example 79, 6-[2-phenylethenyl]-1,3-dimethyllumazine]
IC50 [1]: 17 µM
IC50 [2]: 104 µM
IC50 [3]: > 200 µM

Cn1c(=O)c2nc(C=O)c(NC3CC3)nc2n(C)c1=O [Example 70, 6-formyl-7-cyclopropylamino-1,3-dimethyl-lumazine]
IC50 [1]: 80 µM
IC50 [2]: 80 µM
IC50 [3]: 116 µM

Cn1c(=O)c2ncc(/C=C/c3cccnc3)nc2n(C)c1=O [Example 21, 1,3-dimethyl-7-[(E)-2-(pyrid-3-yl)vinyl]lumazine]
IC50 [1]: 20 µM
IC50 [2]: 100 µM
IC50 [3]: 60 µM

Cn1c(=O)c2nc(-c3ccccc3)c(S)nc2n(C)c1=O [Example 32, 1,3-dimethyl-6-phenyl-7-mercaptolumazine]
IC50 [1]: 25 µM
IC50 [2]: 25 µM
IC50 [3]: 25 µM

Cn1c(=O)[nH]c2nc(O)c(-c3ccccc3)nc2c1=O [Example 42, 7-hydroxy-3-methyl-6-phenyllumazine]
IC50 [1]: 55 µM
IC50 [2]: 20 µM
IC50 [3]: 25 µM

Cn1c(=O)c2nc(C3OCCO3)c(Cl)nc2n(C)c1=O [Example 49, 6-(1,3-dioxolanyl)-7-chloro-1,3-dimethyl-lumazine]
IC50 [1]: 11 µM
IC50 [2]: 2.2 µM
IC50 [3]: 3.6 µM

COC(=O)C(Br)=Cc1cnc2c(n1)c(=O)n(C)c(=O)n2C [Example 12, 6-(2-bromo-2-methoxycarbonyl-ethenyl)-1,3-dimethyllumazine]
IC50 [2]: 0.58 µM
IC50 [3]: 0.08 µM

Cn1c(=O)c2nc(/C=C/c3cccnc3)cnc2n(C)c1=O [Example 6, 1,3-dimethyl-6-[(E)-2-(pyrid-3-yl)vinyl]lumazine]
IC50 [1]: 30 µM
IC50 [2]: 110 µM
IC50 [3]: 110 µM

Cn1c(=O)c2nc(C#N)c(-n3ccnc3)nc2n(C)c1=O [Example 57, 6-cyano-7-imidazolyl-1,3-dimethyl-lumazine]
IC50 [1]: 48 µM
IC50 [2]: 16.8 µM
IC50 [3]: 15 µM

CCOC(=O)c1nc2c(=O)n(C)c(=O)n(C)c2nc1N1CCCCC1 [Example 63, 6-ethylcarboxylate-7-piperidinyl-1,3-dimethyl-lumazine]
IC50 [1]: 104 µM
IC50 [2]: 128 µM
IC50 [3]: 80 µM

CC(C)Sc1nc2c(nc1C#N)c(=O)n(C)c(=O)n2C [Example 58, 6-cyano-7-mercaptoisopropyl-1,3-dimethyl-lumazine]
IC50 [1]: 116 µM
IC50 [2]: 104 µM
IC50 [3]: 116 µM

Cn1c(=O)c2nc(C#N)c(SCc3ccccc3)nc2n(C)c1=O [Example 59, 6-cyano-7-mercaptobenzyl-1,3-dimethyl-lumazine]
IC50 [1]: > 200 µM
IC50 [2]: 18.5 µM
IC50 [3]: 16 µM

Cn1c(=O)c2nc(C=O)c(N3CCCCCC3)nc2n(C)c1=O [Example 68, 6-formyl-7-(1-azacycloheptyl)-1,3-dimethyl-lumazine]
IC50 [1]: 80 µM
IC50 [2]: 80 µM
IC50 [3]: 116 µM

CCOC(=O)CSc1nc2c(nc1C(Cl)Cl)c(=O)n(C)c(=O)n2C [Example 72, 6-dichloromethyl-7-ethylmercaptoacetate-1,3-dimethyl-lumazine]
IC50 [1]: 116 µM
IC50 [2]: > 20 µM
IC50 [3]: 19 µM

Cn1c(=O)c2ncc(C(Br)C(Br)c3ccccc3)nc2n(C)c1=O (stereo not drawn) [Example 27, 7-(1,2-dibromo-2-phenylethyl)-1,3-dimethyllumazine]
IC50 [1]: 12 µM
IC50 [3]: 0.1 µM

CCOC(=O)CSc1nc2c(nc1C#N)c(=O)n(C)c(=O)n2C [Example 81, 6-cyano-7-ethylmercaptoacetate-1,3-dimethyllumazine]
IC50 [1]: 12.2 µM

CCOC(=O)c1nc2c(=O)n(C)c(=O)n(C)c2nc1Cl [Example 48, 6-ethylcarboxylate-7-chloro-1,3-dimethyl-lumazine]
IC50 [1]: 12.5 µM

Cn1c(=O)c2nc(C=Cc3ccc(OC(F)(F)F)cc3)cnc2n(C)c1=O [Example 80, 6-[2-(p-trifluoromethoxyphenyl)ethenyl]-1,3-dimethyllumazine]
IC50 [1]: 9 µM
